Consider 10 compounds from patent publication US20020123513A1, “Use of glycogen phosphorylase inhibitors to inhibit tumor growth” (priority 2000, published 2002).

In assay [1] the target is T1, human muscle glycogen phosphorylase a (HMGPa) (Homo sapiens, UniProt P11217).
T1 construct: made in house; host or cells: E. coli XL-1 Blue (pKK233-2)
T1 sequence (P11217 1-842): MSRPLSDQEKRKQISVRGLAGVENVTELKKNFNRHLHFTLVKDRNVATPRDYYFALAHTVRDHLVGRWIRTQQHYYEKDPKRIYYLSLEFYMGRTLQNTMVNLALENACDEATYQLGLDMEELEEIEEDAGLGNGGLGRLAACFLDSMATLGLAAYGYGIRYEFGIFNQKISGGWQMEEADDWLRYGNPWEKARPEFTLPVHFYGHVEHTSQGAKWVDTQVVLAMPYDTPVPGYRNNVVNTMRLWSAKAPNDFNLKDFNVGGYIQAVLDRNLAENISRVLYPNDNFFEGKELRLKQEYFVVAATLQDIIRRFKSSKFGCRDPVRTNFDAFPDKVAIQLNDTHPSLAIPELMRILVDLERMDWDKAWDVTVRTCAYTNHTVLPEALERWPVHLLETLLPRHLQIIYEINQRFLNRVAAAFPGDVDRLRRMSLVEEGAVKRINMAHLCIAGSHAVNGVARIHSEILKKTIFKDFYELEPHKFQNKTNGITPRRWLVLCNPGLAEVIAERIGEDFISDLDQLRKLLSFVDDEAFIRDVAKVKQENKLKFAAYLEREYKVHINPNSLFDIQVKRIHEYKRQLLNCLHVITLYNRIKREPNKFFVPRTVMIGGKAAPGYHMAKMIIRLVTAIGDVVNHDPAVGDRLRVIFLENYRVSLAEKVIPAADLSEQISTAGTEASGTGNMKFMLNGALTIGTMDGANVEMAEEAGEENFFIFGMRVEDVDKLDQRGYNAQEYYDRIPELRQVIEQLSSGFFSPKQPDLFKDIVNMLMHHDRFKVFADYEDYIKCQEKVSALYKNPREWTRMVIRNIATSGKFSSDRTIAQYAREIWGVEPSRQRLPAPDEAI
Put plainly: GPa activity assay, reverse direction (release of inorganic phosphate from glucose-1-phosphate), HMGPa. Format: biochemical. The note with it: recombinant human muscle GPa, glucose present. As to the method:
(§1) In this invention, enzyme activity is determined by measurement of the reverse activity of GPa, i.e., by measuring the release of phosphate due to the incorporation of glucose-1-phosphate into glycogen, where the amount of phosphate released is determined using the spectrophotometric method and experimental conditions described hereinbelow.
(§2) The three different purified glycogen phosphorylase (GP) isoenzymes from a human source, wherein glycogen phosphorylase is in the activated “a” state (referred to as glycogen phosphorylase a, or the abbreviation GPa), and referred to here as human liver glycogen phosphorylase a (HLGPa), human muscle glycogen phosphorylase a (HMGPa), and human brain glycogen phosphorylase a (HBGPa), can be obtained by the following procedures.
(§3) The effect of the compounds of Formula I or IA on the activity of the activated form of glycogen phosphorylase (GPa) can be determined by one of two methods; glycogen phosphorylase a activity is measured in the forward direction by monitoring the production of glucose-1-phosphate from glycogen or by following the reverse reaction, measuring glycogen synthesis from glucose-I-phosphate by the release of inorganic phosphate. All reactions are run in triplicate in 96-well microtiter plates and the change in absorbance due to formation of the reaction product is measured at the wavelength specified below in a MCC/340 MKII Elisa Reader (Lab Systems, Finland), connected to a Titertech Microplate Stacker (ICN Biomedical Co, Huntsville, Ala.).
(§4) Buffer B is at pH 7.2 and contains 50 mM HEPES, 100 mM KCl, 2.5 mM EGTA, 2.5 mM MgCl2 and 0.5 mM dithiothreitol. […] The compounds to be tested are added as 5 μL of solution in 14% DMSO prior to the addition of the enzyme. […] After a 20 minute incubation at room temperature, the absorbance is measured at 620 nm.
(§5) The above assays carried out with a range of concentrations of test compound allows the determination of an IC50 value (as defined hereinabove, see e.g., p. 14) for the in vitro inhibition of GPa enzyme activity by that test compound.

Assay [2] concerns the target T2, human liver glycogen phosphorylase a (HLGPa) (Homo sapiens, UniProt P06737).
T2 construct: made in house; host or cells: E. coli XL-1 Blue (pKK233-2) or Sf9 insect cells (pBlueBac II baculovirus)
T2 sequence (P06737 1-847): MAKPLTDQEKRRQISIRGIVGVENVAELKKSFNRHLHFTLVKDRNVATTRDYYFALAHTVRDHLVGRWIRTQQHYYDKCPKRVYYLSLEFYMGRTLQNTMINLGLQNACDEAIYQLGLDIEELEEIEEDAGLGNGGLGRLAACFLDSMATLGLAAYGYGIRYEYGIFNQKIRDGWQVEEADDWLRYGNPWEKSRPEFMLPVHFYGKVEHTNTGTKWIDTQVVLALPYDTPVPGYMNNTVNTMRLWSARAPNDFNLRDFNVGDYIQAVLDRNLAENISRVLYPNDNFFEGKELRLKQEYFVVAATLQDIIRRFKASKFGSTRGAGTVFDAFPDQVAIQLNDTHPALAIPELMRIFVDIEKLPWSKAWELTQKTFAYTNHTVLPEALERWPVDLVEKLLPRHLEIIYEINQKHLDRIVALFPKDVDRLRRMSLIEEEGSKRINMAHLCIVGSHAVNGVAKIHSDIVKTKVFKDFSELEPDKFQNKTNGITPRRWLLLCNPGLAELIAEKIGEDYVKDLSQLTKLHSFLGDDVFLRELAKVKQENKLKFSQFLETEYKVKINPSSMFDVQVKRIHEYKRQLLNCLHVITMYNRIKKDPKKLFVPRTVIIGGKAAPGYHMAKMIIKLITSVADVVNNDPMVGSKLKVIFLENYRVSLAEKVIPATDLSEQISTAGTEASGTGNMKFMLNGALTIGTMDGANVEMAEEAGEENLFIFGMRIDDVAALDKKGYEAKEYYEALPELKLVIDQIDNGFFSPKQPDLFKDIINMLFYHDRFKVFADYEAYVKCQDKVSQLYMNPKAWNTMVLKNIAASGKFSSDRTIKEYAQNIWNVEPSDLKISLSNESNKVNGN
In words: GPa activity assay, reverse direction (release of inorganic phosphate from glucose-1-phosphate), HLGPa. Format: biochemical. The note with it: recombinant human liver GPa, glucose present. As to the method: as §1, §2, §3, §4, §5

Structures are written as SMILES.

What is called IC50 is the concentration needed to halve the response being measured. With `O=C(NCC(=O)N1CCSC1)c1cc2cc(Cl)ccc2[nH]1` [5-chloro-1H-indole-2-carboxylic acid (2-oxo-2-thiazolidin-3-yl-ethyl)-amide], the IC50 in assay [1] came out at 433 nM; in assay [2], 307 nM.

For the compound `O=C(NC(Cc1ccccc1)C(=O)N1CCC(O)C1)c1cc2cc(Cl)ccc2[nH]1` (centres unmarked) [5-chloro-1H-indole-2-carboxylic acid [1-benzyl-2-(3-hydroxypyrrolidin-1-yl)-2-oxo-ethyl]-amide], the IC50 in assay [1] was 85 nM; in assay [2] it was 45 nM.

For `O=C(N[C@@H](Cc1ccccc1)C(=O)N1C[C@@H](O)[C@@H](O)C1)c1cc2cc(Cl)ccc2[nH]1` [5-chloro-1H-indole-2-carboxylic acid [(1S)-benzyi-2-(cis-3,4-dihydroxypyrrolidin-1-yl)-2-oxo-ethyl]-amide], the IC50 came out at 97 nM in assay [1] and 30 nM in assay [2].

Turning to `O=C(N[C@@H](Cc1ccccc1)C(=O)N1CC(O)C1)c1cc2cc(Cl)ccc2[nH]1` [5-chloro-1H-indole-2-carboxylic acid [(1S)-benzyl-2-(3-hydroxy-azetidin-1-yl)-2-oxo-ethyl]-amide], the half-inhibitory concentration (IC50) in assay [1] stood at 121 nM; in assay [2], 65 nM.

`O=C(N[C@@H](Cc1ccccc1)C(=O)N1CC(=NO)C1)c1cc2cc(Cl)ccc2[nH]1` [5-chloro-1H-indole-2-carboxylic acid [(1S)-benzyl-2-(3-hydroxyimino-azetidin-1-yl)-2-oxo-ethyl]-amide]: the IC50 in assay [1] came out at 84 nM; in assay [2], 65 nM.

With `O=C(N[C@@H](Cc1ccccc1)C(=O)N1C[C@H](O)[C@@H](O)C1)c1cc2cc(Cl)ccc2[nH]1` [5-chloro-1H-indole-2-carboxylic acid [(1S)-benzyl-2-((3S,4S)-dihydroxy-pyrrolidin-1-yl)-2-oxo-ethyl-amide], the values for the IC50 in assay [1] and in assay [2] were 71 nM and 137 nM, respectively.

On to `O=C(N[C@@H](Cc1ccccc1)[C@@H](O)C(=O)N1CC(O)C1)c1cc2cc(Cl)ccc2[nH]1` [5-chloro-1H-indole-2-carboxylic acid [(1S)-benzyl-3-((3-hydroxyazetidin-1-yl)-(2R)-hydroxy-3-oxopropyl]-amide], for which the IC50 is 706 nM in assay [1] and 236 nM in assay [2].

Take `O=C(N[C@@H](Cc1ccccc1)[C@@H](O)C(=O)N1C[C@@H](O)[C@@H](O)C1)c1cc2cc(Cl)ccc2[nH]1` [5-chloro-1H-indole-2-carboxylic acid [(1S)-benzyl-3-(cis-3,4-dihydroxy-pyrrolidin-1-yl)-(2R)-hydroxy-3-oxopropyl]-amide]: the IC50 in assay [1] came to 385 nM; in assay [2] it was 59 nM.

Turning to `O=C(N[C@@H](Cc1ccccc1)[C@@H](O)C(=O)N1CC[C@H](O)C1)c1cc2cc(Cl)ccc2[nH]1` [5-chloro-1H-indole-2-carboxylic acid [(1S)-benzyl-(2R)-hydroxy-3-((3S)-hydroxy-pyrrolidin-1-yl)-3-oxopropyl]-amide], the figures for the IC50 in assay [1] and in assay [2] were 96 nM and 54 nM, respectively.

For `O=C(N[C@@H](Cc1ccccc1)[C@@H](O)C(=O)N1C[C@H](O)[C@@H](O)C1)c1cc2cc(Cl)ccc2[nH]1` [5-chloro-1H-indole-2-carboxylic acid [(1S)-benzyl-(2R)-hydroxy-3-((3S,4S)-dihydroxy-pyrrolidin-1-yl)-3-oxopropyl]-amide], the figures for the IC50 in assay [1] and in assay [2] were 90 nM and 73 nM, respectively.
